Measurements: paper PMC10564737, “Structure-based design of a phosphotyrosine-masked covalent ligand targeting the E3 ligase SOCS2” (Nature Communications, 2023)

Tests used:
K562 cells = assay: In-cell time-resolved 19F-NMR of prodrug unmasking; format: in vitro ADME; conditions: K562 cell suspension, 500 µM, 37 °C
Excerpt: (§1) Although, with the live-cell CETSA setup we could rank the prodrugs for overall potency, we cannot decouple the individual contributions of cellular permeability and prodrug unmasking rate. To understand the rate of unmasking inside the live cells, we developed an in-cell time-resolved ^19F-NMR to monitor the rate of POM group unmasking (Fig. 5). ^19F-NMR is uniquely suited for this task due to the high receptivity of ^19F, low background in biological samples, and remarkable sensitivity of ^19F chemical shifts to their chemical environment[43],[44]. The latter means that even the distant fluorine of MN551 could act as a reporter for the presence of the masking group on the phosphotyrosine moiety. […] While the downfield peak starts off with higher intensity, it loses intensity quickly and within an hour is overtaken by the growing upfield peak. Within 3 h the downfield peak completely disappears and only the upfield peak is observed. […]
(§2) K562 cells were maintained in IMDM media supplemented with 10% FBS. […] To confirm the identity of the observed species, the lysate was sequentially spiked with 500 µM MN551 and prodrug and measured again. […] All spectra were processed and analyzed using Topspin 4.1.1.

[1] = In-cell time-resolved 19F-NMR of prodrug unmasking; format: in vitro ADME; conditions: human, K562 cell suspension (65% v/v cell content), 37 °C, read-out: half-life time of prodrug unmasking in cells
Excerpt: as §1, §2

CC(C)(C)C(=O)OCOP(=O)(OCOC(=O)C(C)(C)C)Oc1ccc(C[C@H](NC(=O)Cc2ccc(F)cc2)C(=O)NCc2cccc(NC(=O)CCl)c2)cc1 [MN714]
time to complete disappearance of the prodrug (downfield) peak (K562 cells): ≤ 3 h
half-life at 500 µM [1]: 1 to 1.5 h
